Several values for one entry are separate records, joined by “and”; a condition that tells them apart may be missing. Equal values may be shown once. Inconclusive results and toxic doses are left out. No stated cut-off is given here; in the data, active means T/C of 150% or more; inactive means T/C below 125%.
System: L1210 leukemia ip in BDF1 mice, survival T/C
Assay: NCI In Vivo Anticancer Drug Screen. Data for tumor model L1210 Leukemia (intraperitoneal) in B6D2F1 (BDF1) mice
Conditions: endpoint: mean survival time, higher = longer survival
How it was run: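 Tumor was transplanted into mice, which were then dosed with test compound or vehicle alone. Survival was recorded for each group, and the treated figure was expressed relative to the control figure.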

[1] = dose: 100.0 mg/kg/injection, schedule: Q01DX009 (ip), vehicle: saline
[2] = dose: 200.0 mg/kg/injection, schedule: Q01DX009 (ip), vehicle: saline
[3] = dose: 400.0 mg/kg/injection, schedule: Q01DX009 (ip), vehicle: saline
[4] = dose: 100.0 mg/kg/injection, schedule: Q01DX001 (ip), vehicle: carboxymethylcellulose (CMC)
[5] = dose: 100.0 mg/kg/injection, schedule: Q04DX002 (ip), vehicle: saline with Tween-80
[6] = dose: 200.0 mg/kg/injection, schedule: Q01DX001 (ip), vehicle: carboxymethylcellulose (CMC)
[7] = dose: 200.0 mg/kg/injection, schedule: Q04DX002 (ip), vehicle: saline with Tween-80
[8] = dose: 400.0 mg/kg/injection, schedule: Q01DX001 (ip), vehicle: carboxymethylcellulose (CMC)
[9] = dose: 400.0 mg/kg/injection, schedule: Q04DX002 (ip), vehicle: saline with Tween-80
[10] = dose: 100.0 mg/kg/injection, schedule: Q01DX001 (ip), vehicle: Klucel (hydroxypropylcellulose) (HPC)
[11] = dose: 200.0 mg/kg/injection, schedule: Q01DX001 (ip), vehicle: Klucel (hydroxypropylcellulose) (HPC)
[12] = dose: 100.0 mg/kg/injection, schedule: Q01DX009 (ip), vehicle: Klucel (hydroxypropylcellulose) (HPC)
[13] = dose: 100.0 mg/kg/injection, schedule: Q04DX003 (ip), vehicle: Klucel (hydroxypropylcellulose) (HPC)
[14] = dose: 200.0 mg/kg/injection, schedule: Q01DX009 (ip), vehicle: Klucel (hydroxypropylcellulose) (HPC)
[15] = dose: 200.0 mg/kg/injection, schedule: Q04DX003 (ip), vehicle: Klucel (hydroxypropylcellulose) (HPC)
[16] = dose: 400.0 mg/kg/injection, schedule: Q01DX009 (ip), vehicle: Klucel (hydroxypropylcellulose) (HPC)
[17] = dose: 400.0 mg/kg/injection, schedule: Q04DX003 (ip), vehicle: Klucel (hydroxypropylcellulose) (HPC)
[18] = dose: 100.0 mg/kg/injection, schedule: Q01DX001 (ip), vehicle: saline
[19] = dose: 200.0 mg/kg/injection, schedule: Q01DX001 (ip), vehicle: saline
[20] = dose: 400.0 mg/kg/injection, schedule: Q01DX001 (ip), vehicle: saline
[21] = dose: 100.0 mg/kg/injection, schedule: Q04DX003 (ip), vehicle: saline with Tween-80
[22] = dose: 200.0 mg/kg/injection, schedule: Q04DX003 (ip), vehicle: saline with Tween-80
[23] = dose: 100.0 mg/kg/injection, schedule: Q04DX003 (ip), vehicle: saline
[24] = dose: 200.0 mg/kg/injection, schedule: Q04DX003 (ip), vehicle: saline
[25] = dose: 400.0 mg/kg/injection, schedule: Q04DX003 (ip), vehicle: saline

Measured: T/C

Cc1cc(C)[nH]n1
inactive: [1] 103 % of control | [2] 104 % of control | [3] 100 % of control

O=C(O)CCCc1ccccc1
inactive: dose: 50.0 mg/kg/injection, schedule: Q01DX001 (ip), vehicle: carboxymethylcellulose (CMC) 94 % of control | [4] 108 % of control | [5] 98 % of control | [6] 96 % of control | [7] 91 % of control | [8] 107 % of control | [9] 109 % of control

COC(=O)C1=C(C)NC(=O)NC1c1ccc(N(CCCl)CCCl)c(OC)c1 (configuration not stated)
inactive: dose: 3.0 mg/kg/injection, schedule: Q01DX009 (ip), vehicle: Klucel (hydroxypropylcellulose) (HPC) 115 % of control | dose: 6.0 mg/kg/injection, schedule: Q01DX009 (ip), vehicle: Klucel (hydroxypropylcellulose) (HPC) 117 % of control | dose: 12.0 mg/kg/injection, schedule: Q01DX009 (ip), vehicle: Klucel (hydroxypropylcellulose) (HPC) 112 % of control | [10] 109 % of control

ICc1cccc(CI)c1
inactive: dose: 6.25 mg/kg/injection, schedule: Q01DX009 (ip), vehicle: carboxymethylcellulose (CMC) 100 % of control | dose: 6.25 mg/kg/injection, schedule: Q04DX003 (ip), vehicle: carboxymethylcellulose (CMC) 111 % of control | dose: 12.5 mg/kg/injection, schedule: Q01DX001 (ip), vehicle: other 95 % of control | dose: 12.5 mg/kg/injection, schedule: Q01DX009 (ip), vehicle: carboxymethylcellulose (CMC) 94 % of control | dose: 12.5 mg/kg/injection, schedule: Q04DX003 (ip), vehicle: carboxymethylcellulose (CMC) 97 % of control | dose: 25.0 mg/kg/injection, schedule: Q01DX001 (ip), vehicle: other 95 % of control | dose: 25.0 mg/kg/injection, schedule: Q04DX003 (ip), vehicle: carboxymethylcellulose (CMC) 92 % of control

CCCCCCC(=O)CCC(=O)CCCCCCCC(=O)O
inactive: dose: 50.0 mg/kg/injection, schedule: Q01DX001 (ip), vehicle: Klucel (hydroxypropylcellulose) (HPC) 103 % of control | [10] 89 % of control | [11] 100 % of control

CCOC(=S)NS(=O)(=O)c1ccccc1
inactive: dose: 100.0 mg/kg/injection, schedule: Q01DX001 (ip), vehicle: acetone 98 % of control | dose: 200.0 mg/kg/injection, schedule: Q01DX001 (ip), vehicle: acetone 110 % of control | dose: 400.0 mg/kg/injection, schedule: Q01DX001 (ip), vehicle: acetone 98 % of control

CC1=NNC(=O)C1CCO (configuration not stated)
inactive: dose: 25.0 mg/kg/injection, schedule: Q01DX009 (ip), vehicle: Klucel (hydroxypropylcellulose) (HPC) 98 % of control | dose: 50.0 mg/kg/injection, schedule: Q01DX009 (ip), vehicle: Klucel (hydroxypropylcellulose) (HPC) 98 % of control | [12] 92 % of control | [13] 89 % of control | [14] 95 % of control | [15] 96 % of control | [16] 97 % of control | [17] 100 % of control

N#CCCCOc1cccc(N)c1
inactive: [18] 101 % of control | [19] 101 % of control | [20] 101 % of control

O=[N+]([O-])c1ccc2c(c1)/C(=N\O)c1cc(Br)ccc1-2
inactive: [4] 105 % of control | [6] 105 % of control | [8] 94 % of control

COc1ccc(S(=O)(=O)c2ccc(F)cc2)cc1
inactive: dose: 50.0 mg/kg/injection, schedule: Q04DX003 (ip), vehicle: Klucel (hydroxypropylcellulose) (HPC) 95 % of control | dose: 100.0 mg/kg/injection, schedule: Q01DX001 (ip), vehicle: other 98 % of control | [13] 103 % of control | dose: 200.0 mg/kg/injection, schedule: Q01DX001 (ip), vehicle: other 110 % of control | [15] 104 % of control | dose: 400.0 mg/kg/injection, schedule: Q01DX001 (ip), vehicle: other 95 % of control

CCC1=CC(=O)C(CC)=CC1=O
inactive: [21] 89 % of control | [22] 94 % of control | dose: 700.0 mg/kg/injection, schedule: Q04DX003 (ip), vehicle: saline with Tween-80 100 % of control

COc1ccc(COC(=O)Nc2cccc(Cl)c2)cc1
inactive: [10] 111 % of control | [12] 93 % of control and 97 % of control | dose: 100.0 mg/kg/injection, schedule: Q04DX002 (ip), vehicle: Klucel (hydroxypropylcellulose) (HPC) 100 % of control | [13] 108 % of control | [11] 101 % of control | [14] 90 % of control and 92 % of control | dose: 200.0 mg/kg/injection, schedule: Q04DX002 (ip), vehicle: Klucel (hydroxypropylcellulose) (HPC) 104 % of control | [15] 102 % of control | dose: 400.0 mg/kg/injection, schedule: Q01DX001 (ip), vehicle: Klucel (hydroxypropylcellulose) (HPC) 95 % of control | [16] 93 % of control and 90 % of control | [17] 111 % of control

CCN(CC)CCn1ncc2c1C1(C)CCC2C1(C)C (configuration not stated)
inactive: dose: 25.0 mg/kg/injection, schedule: Q01DX009 (ip), vehicle: saline + alcohol 100 % of control | dose: 50.0 mg/kg/injection, schedule: Q01DX009 (ip), vehicle: saline + alcohol 104 % of control | dose: 100.0 mg/kg/injection, schedule: Q01DX009 (ip), vehicle: saline + alcohol 102 % of control | [23] 101 % of control | [24] 102 % of control

Nc1cc2ccccc2cn1
inactive: [13] 112 % of control | [15] 102 % of control | [17] 107 % of control

CCCCC(=O)NC1=C(Cl)C(=O)c2ccccc2C1=O
inactive: dose: 75.0 mg/kg/injection, schedule: Q01DX001 (ip), vehicle: saline 89 % of control | dose: 150.0 mg/kg/injection, schedule: Q01DX001 (ip), vehicle: saline 90 % of control

CCC(N)(C(=O)O)C1CCCCC1 (configuration not stated)
inactive: [23] 96 % of control | [24] 94 % of control | [25] 93 % of control

CC(C)(C)C(=O)c1nn[nH]n1
inactive: dose: 50.0 mg/kg/injection, schedule: Q01DX009 (ip), vehicle: saline 91 % of control | [18] 104 % of control | [1] 98 % of control | [19] 102 % of control

O=C(NCCCl)NC1CCc2ccccc2C1 (configuration not stated)
inactive: [13] 93 % of control | [15] 88 % of control | [17] 89 % of control

Cc1ccc(C(=O)c2sc(Nc3cccc(C(F)(F)F)c3)c(C#N)c2N)c(C)c1
inactive: [5] 95 % of control | [7] 87 % of control | [9] 91 % of control

FC(F)C(F)(F)C(F)(F)C(F)(F)C(F)(F)C(F)(F)C(F)(F)F
inactive: [18] 97 % of control | [19] 100 % of control | [20] 95 % of control

CC(C)(C(=O)O)S(=O)(=O)O
inactive: [1] 108 % of control | [2] 97 % of control | [3] 103 % of control

CNc1nc(Cl)nc(Cl)n1
inactive: [23] 87 % of control | [24] 87 % of control

Cc1ccc(CNc2ccc(F)cc2)cc1
inactive: dose: 100.0 mg/kg/injection, schedule: Q01DX009 (ip), vehicle: saline with Tween-80 94 % of control | [21] 92 % of control | dose: 200.0 mg/kg/injection, schedule: Q01DX009 (ip), vehicle: saline with Tween-80 100 % of control | [22] 102 % of control | dose: 400.0 mg/kg/injection, schedule: Q01DX009 (ip), vehicle: saline with Tween-80 97 % of control | dose: 400.0 mg/kg/injection, schedule: Q04DX003 (ip), vehicle: saline with Tween-80 113 % of control

CC1=CC(C)(C)Nc2ccccc21
inactive: [1] 118 % of control | [23] 106 % of control | [2] 103 % of control | [24] 101 % of control | [3] 116 % of control | [25] 91 % of control

O=C(O)c1ccc(NCCO)cc1
inactive: dose: 75.0 mg/kg/injection, schedule: Q01DX009 (ip), vehicle: Klucel (hydroxypropylcellulose) (HPC) 102 % of control | dose: 150.0 mg/kg/injection, schedule: Q01DX009 (ip), vehicle: Klucel (hydroxypropylcellulose) (HPC) 90 % of control | dose: 300.0 mg/kg/injection, schedule: Q01DX009 (ip), vehicle: Klucel (hydroxypropylcellulose) (HPC) 90 % of control
